Test results taken from ChEMBL document CHEMBL1201862, “PubChem BioAssay data set” (2004).
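Grown in 96-well plates, cells were treated for 48 hours with each compound at five concentrations. Insufficient inhibition: endpoint recorded as highest concentration tested. GI50 is the concentration that inhibits growth by half.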 Activity calls are given as the source filed them. Rule as the data show it: active = GI50 up to about 1.1 µM and inactive = higher.

Legend:
Assay in all cases: growth of human tumour cells (NCI), 48 h
786-0 = test system: 786-0
A498 = test system: A498
A549 = test system: A549
ACHN = test system: ACHN
CAKI-1 = test system: CAKI-1
CCRF-CEM = test system: CCRF-CEM
COLO 205 = test system: COLO 205
DLD-1 = test system: DLD-1
DMS-114 = test system: DMS-114
DMS-273 = test system: DMS-273
EKVX = test system: EKVX
HCC 2998 = test system: HCC 2998
HCT-116 = test system: HCT-116
HCT-15 = test system: HCT-15
HL-60 = test system: HL-60
HOP-18 = test system: HOP-18
HOP-62 = test system: HOP-62
HOP-92 = test system: HOP-92
HT-29 = test system: HT-29
IGROV-1 = test system: IGROV-1
K562 = test system: K562
KM-20L2 = test system: KM-20L2
KM12 = test system: KM12
LOX IMVI = test system: LOX IMVI
LXFL 529 = test system: LXFL 529
M14 = test system: M14
M19-MEL = test system: M19-MEL
MOLT-4 = test system: MOLT-4
Malme-3M = test system: Malme-3M
NCI-H226 = test system: NCI-H226
NCI-H23 = test system: NCI-H23
NCI-H460 = test system: NCI-H460
NCI-H522 = test system: NCI-H522
OVCAR-3 = test system: OVCAR-3
OVCAR-4 = test system: OVCAR-4
OVCAR-5 = test system: OVCAR-5
OVCAR-8 = test system: OVCAR-8
RPMI-8226 = test system: RPMI-8226
RXF 393 = test system: RXF 393
RXF 631 = test system: RXF 631
SF-268 = test system: SF-268
SF-295 = test system: SF-295
SF-539 = test system: SF-539
SK-MEL-28 = test system: SK-MEL-28
SK-MEL-2 = test system: SK-MEL-2
SK-MEL-5 = test system: SK-MEL-5
SK-OV-3 = test system: SK-OV-3
SN12C = test system: SN12C
SNB-19 = test system: SNB-19
SNB-75 = test system: SNB-75
SNB-78 = test system: SNB-78
SR = test system: SR
SW-620 = test system: SW-620
TK-10 = test system: TK-10
U-251 = test system: U-251
UACC-257 = test system: UACC-257
UACC-62 = test system: UACC-62
UO-31 = test system: UO-31
XF498 = test system: XF498

With `Cc1cccc(C)c1N1C(=O)C(=O)C(c2nc3ccccc3s2)/C(=N/NC(=O)c2ccccc2O)C1=O` (stereo unspecified) the GI50 (786-0) was 13.2 µM (inactive), the GI50 (A498) was 28.6 µM (inactive) and the GI50 (A549) was 11.7 µM (inactive). The GI50 (ACHN) was 6.65 µM (inactive), the GI50 (CAKI-1) was 3.07 µM (inactive) and the GI50 (CCRF-CEM) was 4.8 µM (inactive). For the same compound, the GI50 (COLO 205) was 27.4 µM (inactive), the GI50 (DLD-1) was 22.8 µM (inactive) and the GI50 (DMS-114) was 11.6 µM (inactive). For the same compound, the GI50 (DMS-273) was 4.74 µM (inactive), the GI50 (EKVX) was 20.6 µM (inactive) and the GI50 (HCC 2998) was 24.6 µM (inactive). The GI50 (HCT-116) was 10.3 µM (inactive), the GI50 (HCT-15) was 14.7 µM and the GI50 (HL-60) was 12.5 µM (inactive). For the same compound, the GI50 (HOP-18) was 21.7 µM (inactive), the GI50 (HOP-62) was 9.18 µM (inactive) and the GI50 (HOP-92) was 15.7 µM (inactive). For the same compound, the GI50 (HT-29) was 51.5 µM (inactive), the GI50 (IGROV-1) was 3.26 µM (inactive) and the GI50 (K562) was 3.8 µM (inactive). For the same compound, the GI50 (KM-20L2) was 32.6 µM (inactive), the GI50 (KM12) was 35.2 µM (inactive) and the GI50 (LOX IMVI) was 24.4 µM (inactive). For the same compound, the GI50 (LXFL 529) was 10.2 µM (inactive), the GI50 (M14) was 10.1 µM (inactive) and the GI50 (M19-MEL) was 13.1 µM (inactive). The GI50 (MOLT-4) was 8.89 µM (inactive), the GI50 (Malme-3M) was 33 µM (inactive) and the GI50 (NCI-H226) was 13.7 µM (inactive). The GI50 (NCI-H23) was 7.38 µM (inactive), the GI50 (NCI-H460) was 17.7 µM (inactive) and the GI50 (NCI-H522) was 8.77 µM (inactive). For the same compound, the GI50 (OVCAR-3) was 18.7 µM (inactive), the GI50 (OVCAR-4) was 16.8 µM (inactive) and the GI50 (OVCAR-5) was 36.9 µM (inactive). For the same compound, the GI50 (OVCAR-8) was 21 µM (inactive), the GI50 (RPMI-8226) was 12.7 µM (inactive) and the GI50 (RXF 393) was 3.09 µM (inactive). For the same compound, the GI50 (RXF 631) was 24.5 µM (inactive), the GI50 (SF-268) was 6.75 µM (inactive) and the GI50 (SF-295) was 33.3 µM (inactive). For the same compound, the GI50 (SF-539) was 6.87 µM (inactive), the GI50 (SK-MEL-28) was 28 µM (inactive) and the GI50 (SK-MEL-2) was 11 µM (inactive). The GI50 (SK-MEL-5) was 16.2 µM (inactive), the GI50 (SK-OV-3) was 50.7 µM (inactive) and the GI50 (SN12C) was 18.4 µM (inactive). For the same compound, the GI50 (SNB-19) was 10.7 µM (inactive), the GI50 (SNB-75) was 1.05 µM (active) and the GI50 (SNB-78) was 5.45 µM (inactive). The GI50 (SR) was 8.45 µM (inactive), the GI50 (SW-620) was 22.4 µM (inactive) and the GI50 (TK-10) was 25.1 µM (inactive). For the same compound, the GI50 (U-251) was 20.6 µM (inactive), the GI50 (UACC-257) was 23.3 µM (inactive) and the GI50 (UACC-62) was 2.08 µM (inactive). For the same compound, the GI50 (UO-31) was 4.78 µM (inactive) and the GI50 (XF498) was 12.4 µM (inactive).

With `C/C=C/C[C@@H](C)[C@@H](O)[C@H]1C(=O)N[C@@H](CC)C(=O)N(C)CC(=O)N(C)[C@@H](CC(C)C)C(=O)N[C@@H](C(C)C)C(=O)N(C)[C@@H](CC(C)C)C(=O)N[C@@H](C)C(=O)N[C@H](C)C(=O)N(C)[C@@H](CC(C)C)C(=O)N(C)[C@@H](CC(C)C)C(=O)N(C)[C@@H](C(C)C)C(=O)N1C` [CYCLOSPORINE] the GI50 (786-0) was 12.8 µM (inactive), the GI50 (A498) was 4.95 µM (inactive) and the GI50 (A549) was 5.25 µM (inactive). For the same compound, the GI50 (ACHN) was 5.5 µM (inactive), the GI50 (CAKI-1) was 6.98 µM (inactive) and the GI50 (CCRF-CEM) was 3.08 µM (inactive). For the same compound, the GI50 (COLO 205) was 1.77 µM (inactive), the GI50 (DLD-1) was 5.32 µM (inactive) and the GI50 (DMS-114) was 3.7 µM (inactive). The GI50 (DMS-273) was 4.7 µM (inactive), the GI50 (EKVX) was 10.4 µM (inactive) and the GI50 (HCC 2998) was 2.15 µM (inactive). The GI50 (HCT-15) was 4.48 µM, the GI50 (HL-60) was 2.25 µM (inactive) and the GI50 (HOP-18) was 11.1 µM (inactive). For the same compound, the GI50 (HOP-62) was 3.91 µM (inactive), the GI50 (HOP-92) was 4.65 µM (inactive) and the GI50 (HT-29) was 2.29 µM (inactive). The GI50 (IGROV-1) was 5.24 µM (inactive), the GI50 (K562) was 3.99 µM (inactive) and the GI50 (KM-20L2) was 2.97 µM (inactive). For the same compound, the GI50 (KM12) was 5.94 µM (inactive), the GI50 (LOX IMVI) was 2.43 µM (inactive) and the GI50 (LXFL 529) was 6.89 µM (inactive). The GI50 (M14) was 2.61 µM (inactive), the GI50 (M19-MEL) was 2.37 µM (inactive) and the GI50 (MOLT-4) was 2.98 µM (inactive). For the same compound, the GI50 (Malme-3M) was 7.45 µM (inactive), the GI50 (NCI-H226) was 4.39 µM (inactive) and the GI50 (NCI-H23) was 5.37 µM (inactive). For the same compound, the GI50 (NCI-H460) was 3.87 µM (inactive), the GI50 (NCI-H522) was 5.48 µM (inactive) and the GI50 (OVCAR-3) was 3.8 µM (inactive). For the same compound, the GI50 (OVCAR-4) was 4.18 µM (inactive), the GI50 (OVCAR-5) was 6.93 µM (inactive) and the GI50 (OVCAR-8) was 12.2 µM (inactive). The GI50 (RPMI-8226) was 2.48 µM (inactive), the GI50 (RXF 393) was 7.45 µM (inactive) and the GI50 (RXF 631) was 1.98 µM (inactive). For the same compound, the GI50 (SF-268) was 7.26 µM (inactive), the GI50 (SF-295) was 2.79 µM (inactive) and the GI50 (SF-539) was 4.3 µM (inactive). For the same compound, the GI50 (SK-MEL-28) was 5.68 µM (inactive), the GI50 (SK-MEL-2) was 3.17 µM (inactive) and the GI50 (SK-MEL-5) was 3.78 µM (inactive). For the same compound, the GI50 (SN12C) was 3.95 µM (inactive), the GI50 (SNB-19) was 10.5 µM (inactive) and the GI50 (SNB-75) was 7.21 µM (inactive). For the same compound, the GI50 (SNB-78) was 4.98 µM (inactive), the GI50 (SR) was 1.47 µM (inactive) and the GI50 (SW-620) was 11.2 µM (inactive). The GI50 (TK-10) was 7.82 µM (inactive), the GI50 (U-251) was 7.66 µM (inactive) and the GI50 (UACC-257) was 2.05 µM (inactive). For the same compound, the GI50 (UACC-62) was 3.85 µM (inactive), the GI50 (UO-31) was 3.26 µM (inactive) and the GI50 (XF498) was 3.96 µM (inactive).
